Measured values: patent US20230099696A1, “NANO-COMPOSITE MICROPARTICLES OF POLYMYXIN” (Purdue Research Foundation, priority 2020, published 2023)

Columns and labels:
[1] = Crystallinity by powder X-ray diffraction (PXRD); type: physicochemical; details: state of Iva, FIG. 1B, 3A, 3B
Method: Crystalline state of the optimal Iva-BSA-NPs and the physical mixture (PM) of BSA and Iva were characterized by the powder X-ray diffraction (PXRD, SmartLabTM diffractometer, Rigaku Americas, Austin, USA) with Cu-Kα radiation source, operating at 40 kV and 44 mA . The scanning 2θ range was set as 5 to 60° with a scanning rate of 5°/min ([…] et al., 2018a). Crystalline state of co-delivery microparticles and the PM of BSA, Iva, Col and L-leucine were characterized by PXRD with the similar method as to detect the optimal nanoparticles.

[2] = test system: Staphylococcus aureus (SA); details: against SA; cited from earlier work
[3] = test system: Pseudomonas aeruginosa (PA); details: when combined with polymyxin B; cited from earlier work

CC(C)(C)c1cc(C(C)(C)C)c(NC(=O)c2c[nH]c3ccccc3c2=O)cc1O [Iva, Ivacaftor]
crystalline state (PXRD) [1]: crystalline
MIC [2]: 8~32 mg/L
antimicrobial activity against PA [3]: significant antimicrobial activity
